Results: US9499492B2, “4-(ortho)-fluorophenyl-5-fluoropyrimidin-2-yl amines containing a sulfoximine group” (BAYER PHARMA AKTIENGESELLSCHAFT, priority 2012, dated 2016)

Experiment: In vivo pharmacokinetics in rats (Method 6)
Settings: male, Wistar, plasma; rat, iv dosing; read-out: t1/2: terminal half-life from in vivo rat study (converted)
Procedure: 6. In Vivo Pharmacokinetics in Rats
For in vivo pharmacokinetic experiments test compounds were administered to male Wistar rats intravenously at doses of 0.3 to 1 mg/kg formulated as solutions using either rat plasma or solubilizers such as PEG400 in well-tolerated amounts.
For pharmacokinetics after intravenous administration test compounds were given as i.v. bolus and blood samples were taken at 2 min, 8 min, 15 min, 30 min, 45 min, 1 h, 2 h, 4 h, 6 h, 8 h and 24 h after dosing. […] Blood was collected into Lithium-Heparin tubes (Monovetten®, Sarstedt) and centrifuged for 15 min at 3000 rpm. An aliquot of 100 μL from the supernatant (plasma) was taken and precipitated by addition of 400 μL icecold acetonitril and frozen at −20° C. over night. Samples were subsequently thawed and centrifuged at 3000 rpm, 4° C. for 20 minutes. Aliquots of the supernatants were taken for analytical testing using an Agilent 1200 HPLC-system with LCMS/MS detection. PK parameters were calculated by non-compartmental analysis using a PK calculation software.
PK parameters derived from concentration-time profiles after i.v.: CLplasma: Total plasma clearance of test compound (in L/kg/h); CLblood: Total blood clearance of test compound: CLplasma*Cp/Cb (in L/kg/h) with Cp/Cb being the ratio of concentrations in plasma and blood, AUCnorm: Area under the concentration-time curve from t=0 h to infinity (extrapolated) divided by the administered dose (in kg*h/L); t½: terminal half-life (in h).

| half-life | SMILES |
| --- | --- |
| 4.5 h | CS(=N)(=O)Cc1cc(Nc2ncc(F)c(-c3ccc(F)cc3F)n2)cc(C(F)(F)F)c1 (racemic) [Example 4, (rac)-4-(2,4-Difluorophenyl)-5-fluoro-N-{3-[(S-methylsulfonimidoyl)methyl]-5-(trifluoromethyl)phenyl}pyrimidin-2-amine] |
| 4.3 h | CS(=O)(Cc1cc(Nc2ncc(F)c(-c3ccc(F)cc3F)n2)cc(C(F)(F)F)c1)=NC#N (single isomer, unassigned) [Example 2, {[3-{[4-(2,4-Difluorophenyl)-5-fluoropyrimidin-2-yl]amino}-5-(trifluoromethyl)benzyl](methyl)oxido-λ^6-sulfanylidene}cyanamide] |
| 15 h | CS(=N)(=O)Cc1cc(Nc2ncc(F)c(-c3ccc(F)cc3F)n2)cc(S(F)(F)(F)(F)F)c1 (single isomer, unassigned) [Example 32, 4-(2,4-Difluorophenyl)-5-fluoro-N-{3-[(S-methylsulfonimidoyl)methyl]-5-(pentafluoro-λ^6-sulfanyl)phenyl}pyrimidin-2-amine] |
